# Experimental data: ChEMBL document CHEMBL2440080, “Synthesis and biological evaluation of novel acylhydrazone derivatives as potential antitumor agents” (Bioorg Med Chem, 2013)
# Key:
# [1] = Cytotoxicity against human EKVX cells after 48 hrs by sulforhodamine B assay; type: functional
# TK-10 = assay: Cytotoxicity against human TK10 cells after 48 hrs by sulforhodamine B assay; type: functional; conditions: TK-10, 48 h
# SR = assay: Cytotoxicity against human SR cells after 48 hrs by sulforhodamine B assay; type: functional
# U-251 = assay: Cytotoxicity against human U251 cells after 48 hrs by sulforhodamine B assay; type: functional; conditions: U-251, 48 h
# RXF 393 = assay: Cytotoxicity against human RXF393 cells after 48 hrs by sulforhodamine B assay; type: functional; conditions: RXF 393, 48 h
# UACC-62 = assay: Cytotoxicity against human UACC62 cells after 48 hrs by sulforhodamine B assay; type: functional; conditions: UACC-62, 48 h
# DU-145 = assay: Cytotoxicity against human DU145 cells after 48 hrs by sulforhodamine B assay; type: functional; conditions: DU-145, 48 h
# HOP-62 = assay: Cytotoxicity against human HOP62 cells after 48 hrs by sulforhodamine B assay; type: functional; conditions: HOP-62, 48 h
# OVCAR-4 = assay: Cytotoxicity against human OVCAR4 cells after 48 hrs by sulforhodamine B assay; type: functional; conditions: OVCAR-4, 48 h
# RPMI-8226 = assay: Cytotoxicity against human RPMI8226 cells after 48 hrs by sulforhodamine B assay; type: functional; conditions: RPMI-8226, 48 h
# LOX IMVI = assay: Cytotoxicity against human LOXIMVI cells after 48 hrs by sulforhodamine B assay; type: functional
# NCI-H322M = assay: Cytotoxicity against human NCI-H322M cells after 48 hrs by sulforhodamine B assay; type: functional
# Mus musculus = assay: Toxicity in athymic nude mouse assessed as survival at 400 mg/kg, ip measured after 2 weeks; type: organism-based; set-up: dose 400 mg/kg, route intraperitoneal; conditions: in vivo, 336 h
# PC-3 = assay: Cytotoxicity against human PC3 cells after 48 hrs by sulforhodamine B assay; type: functional; conditions: PC-3, 48 h
# HL-60(TB) = assay: Cytotoxicity against human HL-60(TB) cells after 48 hrs by sulforhodamine B assay; type: functional; conditions: HL-60, 48 h
# SNB-75 = assay: Cytotoxicity against human SNB75 cells after 48 hrs by sulforhodamine B assay; type: functional; conditions: SNB-75, 48 h
# HOP-92 = assay: Cytotoxicity against human HOP92 cells after 48 hrs by sulforhodamine B assay; type: functional; conditions: HOP-92, 48 h
# CCRF-CEM = assay: Cytotoxicity against human CCRF-CEM cells after 48 hrs by sulforhodamine B assay; type: functional
# IGROV-1 = assay: Cytotoxicity against human IGROV1 cells after 48 hrs by sulforhodamine B assay; type: functional; conditions: IGROV-1, 48 h
# CAKI-1 = assay: Cytotoxicity against human CAKI-1 cells after 48 hrs by sulforhodamine B assay; type: functional; conditions: CAKI-1, 48 h
# ACHN = assay: Cytotoxicity against human ACHN cells after 48 hrs by sulforhodamine B assay; type: functional
# T47D = assay: Cytotoxicity against human T47D cells after 48 hrs by sulforhodamine B assay; type: functional
# OVCAR-8 = assay: Cytotoxicity against human OVCAR8 cells after 48 hrs by sulforhodamine B assay; type: functional; conditions: OVCAR-8, 48 h
# HCT-116 = assay: Cytotoxicity against human HCT116 cells after 48 hrs by sulforhodamine B assay; type: functional; conditions: HCT-116, 48 h
# HCT-15 = assay: Cytotoxicity against human HCT15 cells after 48 hrs by sulforhodamine B assay; type: functional; conditions: HCT-15, 48 h
# M14 = assay: Cytotoxicity against human M14 cells after 48 hrs by sulforhodamine B assay; type: functional; conditions: M14, 48 h
# SF-295 = assay: Cytotoxicity against human SF295 cells after 48 hrs by sulforhodamine B assay; type: functional; conditions: SF-295, 48 h
# OVCAR-3 = assay: Cytotoxicity against human OVCAR3 cells after 48 hrs by sulforhodamine B assay; type: functional; conditions: OVCAR-3, 48 h
# KM12 = assay: Cytotoxicity against human KM12 cells after 48 hrs by sulforhodamine B assay; type: functional; conditions: KM12, 48 h
# MOLT-4 = assay: Cytotoxicity against human MOLT4 cells after 48 hrs by sulforhodamine B assay; type: functional; conditions: MOLT-4, 48 h
# BT-549 = assay: Cytotoxicity against human BT549 cells after 48 hrs by sulforhodamine B assay; type: functional; conditions: BT-549, 48 h
# SF-268 = assay: Cytotoxicity against human SF268 cells after 48 hrs by sulforhodamine B assay; type: functional; conditions: SF-268, 48 h
# NCI-H460 = assay: Cytotoxicity against human NCI-H460 cells after 48 hrs by sulforhodamine B assay; type: functional; conditions: NCI-H460, 48 h
# NCI/ADR-RES = assay: Cytotoxicity against human NCI/ADR-RES cells after 48 hrs by sulforhodamine B assay; type: functional
structure (smiles),measurement,setting,value
COc1cccc(/C=N/NC(=O)c2ccccc2Nc2ccnc(C(F)(F)F)c2)c1O,GI50,[1],251 nM
same,GI50,TK-10,316 nM
same,GI50,SR,50.1 nM
same,GI50,U-251,398 nM
same,GI50,RXF 393,200 nM
same,GI50,UACC-62,316 nM
same,GI50,DU-145,794 nM
same,GI50,HOP-62,398 nM
same,GI50,OVCAR-4,126 nM
same,GI50,RPMI-8226,158 nM
same,GI50,LOX IMVI,200 nM
same,GI50,NCI-H322M,251 nM
same,Activity,Mus musculus,Non-toxic
same,GI50,PC-3,200 nM
same,GI50,HL-60(TB),200 nM
same,GI50,SNB-75,251 nM
same,GI50,HOP-92,158 nM
same,GI50,CCRF-CEM,251 nM
same,GI50,IGROV-1,25.1 nM
same,GI50,CAKI-1,200 nM
same,GI50,ACHN,100 nM
same,GI50,T47D,501 nM
same,GI50,OVCAR-8,251 nM
same,GI50,HCT-116,316 nM
same,GI50,HCT-15,158 nM
same,GI50,M14,398 nM
same,GI50,SF-295,398 nM
same,GI50,OVCAR-3,100 nM
same,GI50,KM12,398 nM
same,GI50,MOLT-4,10 nM
same,GI50,BT-549,398 nM
same,GI50,SF-268,631 nM
same,GI50,NCI-H460,200 nM
same,GI50,NCI/ADR-RES,501 nM
